Here are results for eight compounds from patent US8802866B2, “Pyridinylimidazolone derivatives for the inhibition of PI3 kinases” (Merck Patent GmbH, priority 2009, dated 2014).

Structures are written as SMILES.

One experiment concerns the target DNA-PK protein complex (Homo sapiens, UniProt P78527). As to the kind of experiment: Biochemical DNA-PK assay (FlashPlate). The procedure:
The kinase assay is carried out in […] microtitre FlashPlates®, coated with streptavidin. […] The reaction is stopped by addition of 50 μl/well of 200 mM EDTA. After incubation for 30 minutes, the liquids are removed at room temperature. Each well is washed three times with 100 μl of 0.9% NaCl solution. Non-specific reaction (blank) is determined using a proprietary kinase inhibitor (10 μM). The radioactivity is measured by means of a Topcount. […] Todd Eary, J. G. Schiro, H. Huang, L. E. Burgess, E. A. Kesicki, and J. Halbrook.

Another experiment has as its target PI3Kbeta (Homo sapiens, UniProt P42338). As to the kind of experiment: Biochemical PI3Kbeta assay (neomycin SPA, lipid phosphorylation). As to conditions: human recombinant GST-PI3K. As to the method:
(§1) The efficacy of the compounds according to the invention in the inhibition of PI3K-induced lipid phosphorylation can be investigated in the following binding assay. The assay combines scintillation proximity assay (SPA) technology (Amersham) with the ability of neomycin (a polycationic antibiotic) to bind phospholipids with high affinity and specificity. […] The coating of SPA beads with neomycin allows the detection of phosphorylated lipid substrates after incubation with recombinant PI3K and radioactive ATP in the same well by trapping the radioactive phospholipids by the SPA beads owing to their specific binding to neomycin. […] After incubation at room temperature for 120 minutes with gentle stirring, the reaction was stopped by addition of 200 μl of a solution comprising 250 μg of neomycin-coated PVT-SPA beads, ATP 60 mM and EDTA 6.2 mM in PBS. The assay is incubated at room temperature for a further 60 minutes with gentle stirring in order to enable binding of the phospholipids to the neomycin-SPA beads. After precipitation of the neomycin-coated PVT-SPA beads over 5 minutes at 1500×g, radioactive Ptdlns(3)P is quantified by scintillation counting in a Wallac Micro-Beta™ plate counter.

Another experiment addresses PI3Kalpha (Homo sapiens, UniProt P42336). As to the kind of experiment: Biochemical PI3Kalpha assay (neomycin SPA, lipid phosphorylation). As to conditions: human recombinant GST-PI3K. As to the method: as §1
For experiment [1], the system named is PI3K-dependent phosphorylation of PKB at Serin 473 in PC3 cells. As to the kind of experiment: Cellular PI3K assay (P-S473-PKB Luminex assay in PC3 cells). In kind it is cell-based. The following applies: Homo sapiens, PC-3, 0.5 h; PC3 cells, 30 min, serum-free, P-S473-PKB; read-out: IC50 (cell). The procedure: The cellular assay for determination of the P-S473-PKB level is carried out as a Luminex assay in 96-well format in PC3 cells.
PC3 cells are sown out with 20,000 cells per well in 100 μl medium (45% […]/45% Ham's F12/10% FCS) and incubated on the following day for 30 min with a serial dilution of the test substance (7 concentrations) under serum-free conditions. The cells are subsequently lysed using 90 μl of lysis buffer (20 mM Tris/HCl pH 8.0, 150 mM NaCl, 1% NP40, 10% glycerol, 1% phosphatase inhibitor I, 1% phosphatase inhibitor II, 0.1% protease inhibitor cocktail III, 0.01% benzonase) per well, and the lysates are separated off from insoluble cell constituents by means of centrifugation through a 96-well filter plate (0.65 μm). The lysates are incubated overnight at 4° C. with shaking with Luminex beads to which an anti-total PKB antibody is coupled. The detection is carried out on the following day by addition of a P-S473-PKB antibody and a species-specific PE-labelled secondary antibody. The detection of P-S473-PKB is carried out by measurement in a Luminex100 instrument by determination of 100 events per cavity in a measurement time of 60 sec.

In experiment [2] the target is recombinant PI3Kalpha (shortened form of the catalytic subunit) (Homo sapiens, UniProt P42336). Put plainly: BIACORE PI3K binding assay (SPR). As to conditions: 25° C. As to the method:
SPR measurements of the binding affinities and binding kinetics on PI3Kalpha surfaces with the aid of Biacore systems. The experiments are carried out on a Biacore S51 “Compound Characterization” or a Biacore T100 instrument utilising the default application “Kinetics/Affinity” Experimental conditions: recombinant PI3Kalpha (shortened form of the catalytic subunit, missing N terminal from about 100 to 150 aa, Mw about 110 kDa, prepared by Proteros Biostructures GmbH) is immobilised on Biacore CM5 chips (25° C., flow rate: 10 μl/min, utilising amine coupling at pH 7.40—Biacore Standard protocol). PI3Kalpha is employed in concentrations between 10 and 25 μg/ml. Depending on the duration of the injection time, immobilisation levels from 1700 to 11000 RU are achieved. The substances to be measured are added in the form of a titration series. The substance concentration is doubled for each subsequent injection. 10 different substance concentrations which cover a 500-fold dilution range are usually injected. […] Kinetic titration experiments are carried out at 25° C. with a flow rate of 30 μl/min, the sample contact time is 180 s, and the dissociation time is 240 s in a running buffer (20 mM HEPES pH7.40, 150 mM NaCl, 5 mM MgCl2, 1 mM DTT, 0.1 mM EDTA, 0.05% Tween 20) comprising 2% of DMSO. Buffer injections (as double references) identical to the sample injections are carried out in each case at the beginning of a continuous series. Solvent correction cycles (eight correction points, 1.4%-2.8% DMSO) are carried out at equal intervals. In order to condition the surface, at least five start-up cycles (buffer injections) are carried out. Data points are collected with a sample rate of 10 Hz. Surface regeneration is carried out after each measurement cycle, apart from after the solvent correction runs. For this purpose, two times 100 mM NaHCO3 pH 8.60 are injected for 30 sec. Data sets are processed and analysed using the Biacore S51 Evaluation software, version 1.2.1, or Biacore T100 Evaluation, version 2.0. Solvent-corrected and double-referenced association and dissociation phase data are adapted to a simple 1:1 interaction model with mass transport limitations.

PI3Kalpha, sequence (P42336 whole entry): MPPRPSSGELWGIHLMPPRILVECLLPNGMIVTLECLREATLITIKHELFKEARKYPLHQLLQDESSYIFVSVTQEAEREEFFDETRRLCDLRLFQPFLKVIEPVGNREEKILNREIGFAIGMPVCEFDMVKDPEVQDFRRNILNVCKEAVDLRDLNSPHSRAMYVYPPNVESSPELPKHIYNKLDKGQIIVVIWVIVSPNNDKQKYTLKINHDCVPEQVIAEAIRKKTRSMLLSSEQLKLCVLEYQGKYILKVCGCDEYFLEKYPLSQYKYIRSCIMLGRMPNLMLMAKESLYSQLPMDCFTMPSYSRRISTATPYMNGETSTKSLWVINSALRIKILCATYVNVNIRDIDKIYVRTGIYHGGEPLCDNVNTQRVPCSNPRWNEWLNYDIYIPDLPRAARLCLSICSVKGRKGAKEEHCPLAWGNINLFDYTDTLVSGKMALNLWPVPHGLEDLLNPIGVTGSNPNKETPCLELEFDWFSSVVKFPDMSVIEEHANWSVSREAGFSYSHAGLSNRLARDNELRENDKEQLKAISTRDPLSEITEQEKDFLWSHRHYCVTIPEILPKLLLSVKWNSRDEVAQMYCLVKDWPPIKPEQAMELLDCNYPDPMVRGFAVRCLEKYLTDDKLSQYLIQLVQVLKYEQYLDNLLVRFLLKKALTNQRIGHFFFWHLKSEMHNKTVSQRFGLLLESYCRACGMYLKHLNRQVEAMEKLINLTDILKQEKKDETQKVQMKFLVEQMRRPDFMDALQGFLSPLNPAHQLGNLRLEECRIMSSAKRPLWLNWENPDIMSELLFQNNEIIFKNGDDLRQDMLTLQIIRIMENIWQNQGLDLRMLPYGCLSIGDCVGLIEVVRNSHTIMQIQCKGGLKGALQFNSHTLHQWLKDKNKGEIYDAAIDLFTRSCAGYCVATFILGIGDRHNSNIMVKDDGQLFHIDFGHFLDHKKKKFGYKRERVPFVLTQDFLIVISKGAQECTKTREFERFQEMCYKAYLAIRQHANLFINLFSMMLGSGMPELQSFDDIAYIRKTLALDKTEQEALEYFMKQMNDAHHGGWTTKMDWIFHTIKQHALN
PI3Kalpha, sequence (P27986 whole entry partner): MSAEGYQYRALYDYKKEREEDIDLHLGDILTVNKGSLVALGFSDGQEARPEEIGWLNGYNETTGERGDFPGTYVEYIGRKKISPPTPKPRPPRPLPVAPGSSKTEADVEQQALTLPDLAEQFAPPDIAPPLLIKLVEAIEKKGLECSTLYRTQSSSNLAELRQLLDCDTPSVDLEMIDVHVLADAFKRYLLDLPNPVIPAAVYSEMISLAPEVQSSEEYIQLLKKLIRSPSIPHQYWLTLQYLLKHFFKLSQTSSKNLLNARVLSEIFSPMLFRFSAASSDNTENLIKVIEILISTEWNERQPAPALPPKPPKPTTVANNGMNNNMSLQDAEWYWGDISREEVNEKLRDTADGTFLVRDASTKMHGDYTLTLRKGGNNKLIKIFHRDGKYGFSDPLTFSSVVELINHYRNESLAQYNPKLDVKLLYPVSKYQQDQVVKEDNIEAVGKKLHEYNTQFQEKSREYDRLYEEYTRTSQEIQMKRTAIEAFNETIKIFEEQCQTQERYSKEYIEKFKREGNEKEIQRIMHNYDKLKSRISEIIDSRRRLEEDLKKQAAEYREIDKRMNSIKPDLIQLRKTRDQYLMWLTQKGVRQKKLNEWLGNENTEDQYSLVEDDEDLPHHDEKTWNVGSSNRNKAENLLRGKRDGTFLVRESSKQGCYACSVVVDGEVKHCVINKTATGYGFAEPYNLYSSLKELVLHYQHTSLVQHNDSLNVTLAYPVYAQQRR
recombinant PI3Kalpha (shortened form of the catalytic subunit), sequence (P42336 151-1068 limits assumed): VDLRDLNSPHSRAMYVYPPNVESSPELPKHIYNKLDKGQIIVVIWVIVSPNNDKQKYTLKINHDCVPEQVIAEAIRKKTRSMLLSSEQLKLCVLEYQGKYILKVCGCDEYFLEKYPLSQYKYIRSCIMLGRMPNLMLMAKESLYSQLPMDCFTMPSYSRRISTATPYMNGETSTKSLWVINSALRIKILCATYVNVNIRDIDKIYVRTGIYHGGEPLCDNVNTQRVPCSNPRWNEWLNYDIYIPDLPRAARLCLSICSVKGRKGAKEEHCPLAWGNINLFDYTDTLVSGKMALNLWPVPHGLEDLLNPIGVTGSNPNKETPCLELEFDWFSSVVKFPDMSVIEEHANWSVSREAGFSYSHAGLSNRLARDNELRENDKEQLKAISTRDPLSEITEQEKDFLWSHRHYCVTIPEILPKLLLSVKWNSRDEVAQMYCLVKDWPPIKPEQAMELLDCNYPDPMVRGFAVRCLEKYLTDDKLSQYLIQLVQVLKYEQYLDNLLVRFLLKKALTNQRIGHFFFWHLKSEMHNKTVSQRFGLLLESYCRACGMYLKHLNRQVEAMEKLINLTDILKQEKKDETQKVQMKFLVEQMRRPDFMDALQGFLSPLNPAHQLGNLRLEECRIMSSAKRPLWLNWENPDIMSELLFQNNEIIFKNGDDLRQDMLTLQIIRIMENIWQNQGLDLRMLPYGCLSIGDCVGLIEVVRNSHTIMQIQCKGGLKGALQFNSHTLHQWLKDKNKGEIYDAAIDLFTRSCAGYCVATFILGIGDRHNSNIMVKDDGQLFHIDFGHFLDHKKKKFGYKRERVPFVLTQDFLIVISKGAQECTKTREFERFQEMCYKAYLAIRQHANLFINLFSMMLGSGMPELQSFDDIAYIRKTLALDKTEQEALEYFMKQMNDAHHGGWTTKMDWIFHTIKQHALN
PI3Kbeta, sequence (P42338 whole entry): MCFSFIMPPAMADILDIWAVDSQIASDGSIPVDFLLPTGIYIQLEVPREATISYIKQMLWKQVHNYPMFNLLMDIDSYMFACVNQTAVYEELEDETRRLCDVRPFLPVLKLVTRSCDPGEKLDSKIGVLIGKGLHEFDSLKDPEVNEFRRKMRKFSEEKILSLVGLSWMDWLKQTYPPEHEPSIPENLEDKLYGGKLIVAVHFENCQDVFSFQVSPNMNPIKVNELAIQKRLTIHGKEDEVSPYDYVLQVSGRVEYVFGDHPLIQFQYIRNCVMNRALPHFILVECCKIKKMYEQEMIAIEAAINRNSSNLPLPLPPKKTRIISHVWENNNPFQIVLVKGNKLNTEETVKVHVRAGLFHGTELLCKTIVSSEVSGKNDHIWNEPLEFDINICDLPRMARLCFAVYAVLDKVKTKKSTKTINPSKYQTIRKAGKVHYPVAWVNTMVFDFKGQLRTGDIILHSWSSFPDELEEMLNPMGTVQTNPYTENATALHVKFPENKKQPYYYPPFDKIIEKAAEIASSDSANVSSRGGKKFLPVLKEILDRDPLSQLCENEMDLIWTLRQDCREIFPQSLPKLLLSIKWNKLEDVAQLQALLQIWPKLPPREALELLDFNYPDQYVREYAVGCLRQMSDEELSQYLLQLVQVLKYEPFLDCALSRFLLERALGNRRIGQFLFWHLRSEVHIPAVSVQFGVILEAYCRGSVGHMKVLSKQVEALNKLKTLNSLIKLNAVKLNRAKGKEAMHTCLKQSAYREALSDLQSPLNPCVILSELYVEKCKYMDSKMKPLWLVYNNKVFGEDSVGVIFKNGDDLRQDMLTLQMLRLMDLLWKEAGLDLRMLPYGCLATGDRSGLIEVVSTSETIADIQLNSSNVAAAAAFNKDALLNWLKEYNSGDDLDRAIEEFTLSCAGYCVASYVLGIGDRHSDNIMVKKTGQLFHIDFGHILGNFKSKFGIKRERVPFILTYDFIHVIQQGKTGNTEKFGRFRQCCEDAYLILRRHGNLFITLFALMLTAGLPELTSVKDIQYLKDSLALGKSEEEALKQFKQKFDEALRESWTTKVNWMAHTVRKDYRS
PI3Kbeta, sequence (P27986 whole entry partner): as the sequence (P27986 whole entry partner) above

In general, IC50 refers to the point on the concentration scale where inhibition reaches its midpoint. The Kd is the equilibrium constant for the complex coming apart. On to `Cn1cc(-c2cc(-c3cnc(N)c(C(F)(F)F)c3)ccn2)n(-c2cccc(C#N)c2)c1=O` [Example A64, 3-[5-(6-Amino-5-trifluoromethyl-[3,4′]bipyridinyl-2′-yl)-3-methyl-2-oxo-2,3-dihydroimidazol-1-yl]benzonitrile], for which the IC50 at DNA-PK protein complex lay in the range of 0.1 to 100 nM; on PI3Kbeta, 100 to 10000 nM; at PI3Kalpha, 100 to 10000 nM; in experiment [1] it was 100 to 10000 nM. For the same compound, the Kd in experiment [2] lay in the range of 0.1 to 100 nM.

On to `Cn1cc(-c2cc(-c3cnc(N)c(C#N)c3)ccn2)n(-c2ccc(N3CCNCC3)c(C(F)(F)F)c2)c1=O` [Example A65, 6-Amino-2′-[1-methyl-2-oxo-3-(4-piperazin-1-yl-3-trifluoromethylphenyl)-2,3-dihydro-1H-imidazol-4-yl]-[3,4′]bipyridinyl-5-carbonitrile], for which the IC50 at DNA-PK protein complex fell in the range of 0.1 to 100 nM; on PI3Kbeta, 100 to 10000 nM; at PI3Kalpha it was 100 to 10000 nM; in experiment [1] it was 100 to 10000 nM. Besides, in experiment [2], the Kd fell in the range of 0.1 to 100 nM.

Turning to `CCc1cccc(-n2c(-c3cc(-c4cnc5[nH]ccc5c4)ccn3)cn(C)c2=O)c1` [Example A66, 3-(3-Ethylphenyl)-1-methyl-4-[4-(1H-pyrrolo[2,3-b]pyridin-5-yl)pyridin-2-yl]-1,3-dihydroimidazol-2-one], the IC50 (at DNA-PK protein complex; on PI3Kbeta; at PI3Kalpha; in experiment [1]) was greater than 10000 nM each time. For the same compound, the dissociation constant Kd in experiment [2] is greater than 10000 nM.

As for `Cn1cc(-c2cc(-c3cnc4[nH]ccc4c3)ccn2)n(-c2ccccc2C(F)(F)F)c1=O` [Example A67, 1-Methyl-4-[4-(1H-pyrrolo[2,3-b]pyridin-5-yl)pyridin-2-yl]-3-(2-trifluoromethylphenyl)-1,3-dihydroimidazol-2-one], the half-maximal inhibitory concentration (IC50) against DNA-PK protein complex lay within 0.1 to 100 nM; at PI3Kbeta, 100 to 10000 nM; on PI3Kalpha, 100 to 10000 nM; in experiment [1], 100 to 10000 nM. Further, in experiment [2], the equilibrium dissociation constant (Kd) lay within 100 to 10000 nM.

For the compound `Cn1cc(-c2cc(-c3cnc4[nH]ccc4c3)ccn2)n(-c2ccccc2C#N)c1=O` [Example A69, 2-{3-Methyl-2-oxo-5-[4-(1H-pyrrolo[2,3-b]pyridin-5-yl)pyridin-2-yl]-2,3-dihydroimidazol-1-yl}benzonitrile], the IC50 (against DNA-PK protein complex; on PI3Kbeta; at PI3Kalpha; in experiment [1]) was greater than 10000 nM each time. In addition, in experiment [2], the dissociation constant (Kd) was 100 to 10000 nM.

Turning to `Cn1cc(-c2cc(-c3cnc4[nH]ccc4c3)ccn2)n(-c2ccc(N3CCOCC3)c(C(F)(F)F)c2)c1=O` [Example A71, 1-Methyl-3-(4-morpholin-4-yl-3-trifluoromethylphenyl)-4-[4-(1H-pyrrolo[2,3-b]-pyridin-5-yl)pyridin-2-yl]-1,3-dihydroimidazol-2-one], the half-inhibitory concentration (IC50) against DNA-PK protein complex was 0.1 to 100 nM; at PI3Kbeta, 100 to 10000 nM; on PI3Kalpha, 100 to 10000 nM; in experiment [1] it was 0.1 to 100 nM. Moreover, the Kd in experiment [2] was in the range of 0.1 to 100 nM.

In the case of `CN1CCN(c2ccc(-n3c(-c4cc(-c5cnc6[nH]ccc6c5)ccn4)cn(C)c3=O)cc2C#N)CC1` [Example A83, 5-{3-Methyl-2-oxo-5-[4-(1H-pyrrolo[2,3-b]pyridin-5-yl)pyridin-2-yl]-2,3-dihydroimidazol-1-yl}-2-(4-methylpiperazin-1-yl)benzonitrile], the 50% inhibitory concentration (IC50) (at DNA-PK protein complex; at PI3Kbeta; at PI3Kalpha; in experiment [1]) was 100 to 10000 nM throughout. Moreover, the equilibrium dissociation constant (Kd) in experiment [2] is 0.1 to 100 nM.

In the case of `Cn1cc(-c2cc(-c3cnc(N)c(-c4ccccc4)c3)ccn2)n(-c2ccc(C(C)(C)C#N)cc2)c1=O` [Example A84, 2-{4-[5-(6-Amino-5-phenyl-[3,4′]bipyridinyl-2′-yl)-3-methyl-2-oxo-2,3-dihydroimidazol-1-yl]phenyl}-2-methylpropionitrile], the 50% inhibitory concentration (IC50) at DNA-PK protein complex lay in the range of 0.1 to 100 nM; at PI3Kbeta, 100 to 10000 nM; on PI3Kalpha, 0.1 to 100 nM; in experiment [1] it was 100 to 10000 nM. For the same compound, in experiment [2], the dissociation constant (Kd) was in the range of 0.1 to 100 nM.
